In patent US20050095241A1, “Estrogen receptor modulators and uses thereof” (priority 2003, published 2005):

Legend:
Ishikawa cells = experiment: Tamoxifen-mediated agonist signaling, reporter gene and cell growth assays, Ishikawa cells; type: cell-based; conditions: Ishikawa cells co-transfected with ERE reporter gene; two days
Source text: (§1) Interference with PELP1 function blocks tamoxifen-mediated agonist activity in endometrial cell lines. Disruption of PELP1 functions was examined to assess interference with tamoxifen-mediated agonist signaling using reporter gene assays and cell growth assays performed in an endometrial cell line (Ishikawa) and a breast cancer cell line (MCF-7). Cancer cells were co-transfected with ERE reporter gene along with either (a) PELP1 cDNA, (b) PELP1 H1 […]), (c) PELP1 mutant cDNA lacking the nuclear localization signal (PELP-NLS mutant), or (d) PELP1-specific siRNA. Cells were stimulated with estrogen for two days and reporter gene activity and cell number were measured.

MCF-7 cells = experiment: Tamoxifen-mediated agonist signaling, reporter gene and cell growth assays, MCF-7 cells; type: cell-based; conditions: MCF-7 cells co-transfected with ERE reporter gene; two days
Source text: as §1

ER = ER transactivation assay (ERE-luciferase) in ER-positive Ishikawa cells; type: cell-based; conditions: coexpression of PELP1, compared to 6 fold in vector-transfected cells, FIG. 7B
Method: (§2) PELP1 is widely expressed in endometrial cancer cells including the widely used endometrial cell lines (Ishikawa and RL 95-2). Control MCF-7 (ERα-positive) and MDA-MB-231 (ERβ-positive) breast cancer cells were also analyzed. (FIG. 7A). […] PELP1 modulation of the transactivation functions of both ER subtypes was performed using ERα or ERβ specific ligands. […] PELP1 also promotes ERβ transcriptional activity in Ishikawa cells when cotransfected with PELP1 (FIG. 7F). Further, endogenous PELP1 effectively interacts with ERβ in Ishikawa cells in a ligand-dependent manner (FIG. 7G).

ERα [1] = target: T1, ERα (Homo sapiens, UniProt P03372); experiment: E2-mediated transactivation with PELP1 mutant lacking C-terminal histone-binding region; conditions: FIG. 9
T1 sequence (P03372 1-595): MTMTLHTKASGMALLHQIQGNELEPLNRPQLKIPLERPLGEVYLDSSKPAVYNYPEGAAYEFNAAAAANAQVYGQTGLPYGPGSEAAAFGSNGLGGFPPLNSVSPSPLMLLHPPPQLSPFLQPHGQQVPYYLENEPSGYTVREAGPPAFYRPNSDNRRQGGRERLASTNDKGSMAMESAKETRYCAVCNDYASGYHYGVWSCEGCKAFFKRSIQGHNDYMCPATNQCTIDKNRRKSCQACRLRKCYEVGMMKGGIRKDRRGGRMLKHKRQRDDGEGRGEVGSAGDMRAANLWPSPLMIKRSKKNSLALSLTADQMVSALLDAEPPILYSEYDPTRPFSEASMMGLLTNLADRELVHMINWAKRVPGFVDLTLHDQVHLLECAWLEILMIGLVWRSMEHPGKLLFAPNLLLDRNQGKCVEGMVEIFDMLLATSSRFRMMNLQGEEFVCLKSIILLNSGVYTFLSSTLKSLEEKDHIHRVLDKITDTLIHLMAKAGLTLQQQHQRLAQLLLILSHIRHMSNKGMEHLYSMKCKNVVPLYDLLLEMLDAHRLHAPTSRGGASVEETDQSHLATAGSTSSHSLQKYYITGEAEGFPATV

ERE reporter gene = ERE reporter gene assay in Ishikawa cells with or without PELP1 H1 mutant; type: cell-based, human; conditions: Ishikawa cells transfected with ERE reporter gene, treated or not treated with estrogen; FIG. 1E
Source text: Ishikawa (human endometrial adenocarcinoma) cells were transfected with ERE reporter gene with or without the PELP1 H1 mutant. […]

ERE luciferase reporter = ERE luciferase reporter assay in MCF-7, Ishikawa, HeLa and SaoS2 cells; conditions: E2 10^−9M, 24 hours
ERα [2] = target: T1, ERα; experiment: 3XEREluc reporter assay with ERα specific ligand in Ishikawa cells; type: cell-based; conditions: PELP1-transfected Ishikawa cells treated with PPT; FIG. 7C
Method: as §2

Compound | tamoxifen-mediated agonist activity (Ishikawa cells) | tamoxifen-mediated agonist activity (MCF-7 cells) | increase of ERE-luciferase (luc) activity in ligand-stimulated cells (ER) [fold] | ERα mediated transcription (ERα [1]) | estrogen-mediated transcriptional activation (ERE reporter gene activity) (ERE reporter gene) | ERE luciferase reporter activity (ERE luciferase reporter; FIG. 2) | ERE luciferase reporter activity (ERE luciferase reporter; FIG. 2, listed as Histone H1 mutant) | increase of 3XEREluc reporter activity (ERα [2])
wild-type PELP1: Proline, glutamic acid and leucine rich protein 1, full length, expressed from PELP1 cDNA; SEQ ID NO:1 | augmented tamoxifen-mediated agonist activity | not in MCF-7 cells | 9 |  |  |  |  | 
PELP1 H1 mutant: C-terminal deleted PELP1 mutant (aa 1-877), stop codon after amino acid 877, lacks Histone H1 binding domain; SEQ ID NO:14 | disrupted tamoxifen-mediated agonist activity |  |  | blocks ERα mediated transcription | blocking of estrogen-mediated transcriptional activation | effectively suppressed the estrogen mediated ER coactivation functions | substantially reduced the magnitude of the transcriptional activation by estrogen | 
CCCc1c(-c2ccc(O)cc2)nn(-c2ccc(O)cc2)c1-c1ccc(O)cc1 [PPT] |  |  |  |  |  |  |  | 9 times more than the vector-transfected control
